Experimental data taken from article PMC8296573, “Synthesis and Biological Evaluation of Fingolimod Derivatives as Antibacterial Agents” (ACS Omega, 2021).
Values after ≈ are worked out from the molar mass of the structure shown. Read-outs that look alike come from different tables or passages of the source.

Legend:
[1] = system: S. aureus ATCC 25923; assay: Antibacterial activity, pre-exposure (planktonic cells and biofilm formation); type: cell-based, Staphylococcus aureus; details: for MIC / inhibition at 5 µM / inhibition at 10 µM / inhibition at 15 µM / inhibition at 25 µM: Staphylococcus aureus, ATCC25923; for inhibition at 5 µM / inhibition at 10 µM / inhibition at 15 µM / inhibition at 25 µM / Average inhibition %, biofilms viability / Average inhibition %, planktonic cells viability: ± SD
Method in brief: (§1)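 Pre-exposure format: compound and bacterial culture co-incubated 18 h, 37 °C, aerobic, 220 rpm. Planktonic: turbidity (OD) plus resazurin viability, 20 μM final. Biofilm: PBS wash, 20 μM resazurin, then ethanol fixation and crystal violet staining, A595.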

[2] = system: S. aureus ATCC 25923; assay: Antibacterial activity, post-exposure on preformed 18-h-old biofilms; type: cell-based, Staphylococcus aureus; details: ± SD; for inhibition at 25 µM / inhibition at 50 µM / inhibition at 100 µM / inhibition at 200 µM: Staphylococcus aureus; for inhibition at 25 µM: ATCC25923, 25 µM; for inhibition at 50 µM: ATCC25923, 50 µM; for inhibition at 100 µM: ATCC25923, 100 µM; for inhibition at 200 µM: ATCC25923, 200 µM
Method in brief: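 Compounds were applied to preformed 18-h biofilms after medium change and left 24 h. Read-outs: planktonic OD plus resazurin fluorescence (20 μM), biofilm metabolic activity by resazurin 30 min at 37 °C, then biomass by crystal violet absorbance at 595 nm after ethanol fixation.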

[3] = system: A. baumannii NCTC 13423; assay: Antibacterial activity, pre-exposure; type: cell-based, Acinetobacter baumannii; details: for Average inhibition %, biofilms viability / Average inhibition %, planktonic cells viability / inhibition at 10 µM / inhibition at 15 µM / inhibition at 25 µM / inhibition at 50 µM: A. baumannii NCTC 13423, pre-exposure, ± SD; for inhibition at 10 µM / inhibition at 15 µM / inhibition at 25 µM / inhibition at 50 µM / MIC: Acinetobacter baumannii, NCTC13423
Method in brief: as §1

[4] = system: P. aeruginosa ATCC 9027; assay: Antibacterial activity, pre-exposure; type: cell-based, Pseudomonas aeruginosa; details: for Average inhibition %, biofilms viability / Average inhibition %, planktonic cells viability / inhibition at 50 µM / inhibition at 100 µM / inhibition at 150 µM / inhibition at 200 µM: P. aeruginosa ATCC 9027, pre-exposure, ± SD; for inhibition at 50 µM / inhibition at 100 µM / inhibition at 150 µM / inhibition at 200 µM: Pseudomonas aeruginosa, ATCC9027
Method in brief: as §1

[5] = read-out: Average inhibition %, biofilms biomass
[6] = read-out: Average inhibition %, planktonic cells turbidity
[7] = 50 µM, read-out: Average inhibition %, biofilms biomass
[8] = 50 µM, read-out: Average inhibition %, planktonic cells turbidity

## CCCCCCCCCCc1ccc(C(O)CC(N)(CO)CO)cc1 (stereo not shown) [Compound 55, 3-Amino-3-(hydroxymethyl)-1-(4-decylphenyl)butane-1,4-diol]
[1]; lowest concentration with no visible growth (>90% inhibition of turbidity and viability of planktonic cells), 18 h, read-out: MIC S. aureus ATCC 25923
  MIC: 5 to 15 µM (≈ 1.76 to 5.27 µg/mL)
[1]; pre-exposure, 5 µM, read-out: Average inhibition %, biofilms biomass
  inhibition at 5 µM: 48.4 ± 41.1%
[1]; pre-exposure, 5 µM, read-out: Average inhibition %, planktonic cells turbidity
  inhibition at 5 µM: 38.2 ± 53.8%
[1]; pre-exposure, 10 µM, read-out: Average inhibition %, biofilms biomass
  inhibition at 10 µM: 69.6 ± 23.5%
[1]; pre-exposure, 10 µM, read-out: Average inhibition %, planktonic cells turbidity
  inhibition at 10 µM: 43.5 ± 48.8%
[1]; pre-exposure, 15 µM, read-out: Average inhibition %, biofilms biomass
  inhibition at 15 µM: 93.4 ± 1.1%
[1]; pre-exposure, 15 µM, read-out: Average inhibition %, planktonic cells turbidity
  inhibition at 15 µM: 99 ± 0.6%
[1]; pre-exposure, 25 µM, read-out: Average inhibition %, biofilms biomass
  inhibition at 25 µM: 94.2 ± 1.1%
[1]; pre-exposure, 25 µM, read-out: Average inhibition %, planktonic cells turbidity
  inhibition at 25 µM: 98.8 ± 0.6%
[1]; pre-exposure, lowest value among replicates, read-out: MIC S. aureus ATCC 25923, for some replicates
  MIC: 5 µM (≈ 1.76 µg/mL)
[1]; read-out: MIC (S. aureus)
  MIC: 5 to 15 µM (≈ 1.76 to 5.27 µg/mL)
[1]; pre-exposure, 5 µM
  Average inhibition %, biofilms viability: 50.6 ± 42%
  Average inhibition %, planktonic cells viability: 33.2 ± 57.6%
[1]; pre-exposure, 10 µM
  Average inhibition %, biofilms viability: 66.7 ± 28.3%
  Average inhibition %, planktonic cells viability: 43.1 ± 49.4%
[1]; pre-exposure, 15 µM
  Average inhibition %, biofilms viability: 99.2 ± 0.2%
  Average inhibition %, planktonic cells viability: 99.8 ± 0.1%
[1]; pre-exposure, 25 µM
  Average inhibition %, biofilms viability: 99.6 ± 0.2%
  Average inhibition %, planktonic cells viability: 99.8 ± 0.2%
[2]; 25 µM
  Average inhibition %, biofilms viability: 17.9 ± 13.2%
  Average inhibition %, planktonic cells viability: 0 ± 0%
[2]; 50 µM
  Average inhibition %, biofilms viability: 36.8 ± 8.3%
  Average inhibition %, planktonic cells viability: 0 ± 0%
[2]; 100 µM
  Average inhibition %, biofilms viability: 44.4 ± 9.7%
  Average inhibition %, planktonic cells viability: 70 ± 12.5%
[2]; 200 µM
  Average inhibition %, biofilms viability: 94 ± 8.6%
  Average inhibition %, planktonic cells viability: 100.4 ± 0%
[2]; [5]
  inhibition at 25 µM: 51.6 ± 18.4%
  inhibition at 50 µM: 63.1 ± 9%
  inhibition at 100 µM: 61.4 ± 3.4%
  inhibition at 200 µM: 80.8 ± 4.2%
[2]; [6]
  inhibition at 25 µM: 15.7 ± 13.7%
  inhibition at 50 µM: 9.8 ± 13.9%
  inhibition at 100 µM: 67.6 ± 10.3%
  inhibition at 200 µM: 84.2 ± 3.1%
[3]; 10 µM
  Average inhibition %, biofilms viability: 1.8 ± 3.2%
  Average inhibition %, planktonic cells viability: 3.8 ± 3.3%
[3]; 15 µM
  Average inhibition %, biofilms viability: 92.7 ± 9.4%
  Average inhibition %, planktonic cells viability: 98.1 ± 2.3%
[3]; 25 µM
  Average inhibition %, biofilms viability: 100.6 ± 0.9%
  Average inhibition %, planktonic cells viability: 99.7 ± 0%
[3]; 50 µM
  Average inhibition %, biofilms viability: 101 ± 1%
  Average inhibition %, planktonic cells viability: 99.5 ± 0%
[3]; 10 µM, read-out: Average inhibition %, biofilms biomass
  inhibition at 10 µM: 0.2 ± 0.4%
[3]; 10 µM, read-out: Average inhibition %, planktonic cells turbidity
  inhibition at 10 µM: 0.8 ± 1.4%
[3]; 15 µM, read-out: Average inhibition %, biofilms biomass
  inhibition at 15 µM: 74.2 ± 18.9%
[3]; 15 µM, read-out: Average inhibition %, planktonic cells turbidity
  inhibition at 15 µM: 97.2 ± 2.5%
[3]; 25 µM, read-out: Average inhibition %, biofilms biomass
  inhibition at 25 µM: 88.5 ± 6.6%
[3]; 25 µM, read-out: Average inhibition %, planktonic cells turbidity
  inhibition at 25 µM: 99.5%
[3]; [7]
  inhibition at 50 µM: 87.4 ± 4.1%
[3]; [8]
  inhibition at 50 µM: 99.1%
[3]; pre-exposure, Inactive = no activity up to 50 μM, > = some inhibition but no MIC reached, read-out: MIC A. baumannii NCTC 13423
  MIC: 15 µM (≈ 5.27 µg/mL)
[3]; supplementary molecular formula strings sheet, read-out: MIC (A. baumannii)
  MIC: 15 µM (≈ 5.27 µg/mL)
[4]; 50 µM
  Average inhibition %, biofilms viability: 13.6 ± 11.8%
  Average inhibition %, planktonic cells viability: 31.2 ± 8.9%
[4]; 100 µM
  Average inhibition %, biofilms viability: 9.4 ± 9.2%
  Average inhibition %, planktonic cells viability: 30.3 ± 25.5%
[4]; 150 µM
  Average inhibition %, biofilms viability: 3.3 ± 4.6%
  Average inhibition %, planktonic cells viability: 40.3 ± 27.1%
[4]; 200 µM
  Average inhibition %, biofilms viability: 5 ± 5.6%
  Average inhibition %, planktonic cells viability: 27.1 ± 15.6%
[4]; [7]
  inhibition at 50 µM: 6.4 ± 8.2%
[4]; [8]
  inhibition at 50 µM: 45.1 ± 5.7%
[4]; 100 µM, read-out: Average inhibition %, biofilms biomass
  inhibition at 100 µM: 10.8 ± 8.8%
[4]; 100 µM, read-out: Average inhibition %, planktonic cells turbidity
  inhibition at 100 µM: 49.4 ± 8.3%
[4]; 150 µM, read-out: Average inhibition %, biofilms biomass
  inhibition at 150 µM: 12 ± 10.4%
[4]; 150 µM, read-out: Average inhibition %, planktonic cells turbidity
  inhibition at 150 µM: 54.3 ± 13.8%
[4]; 200 µM, read-out: Average inhibition %, biofilms biomass
  inhibition at 200 µM: 3.1 ± 2.7%
[4]; 200 µM, read-out: Average inhibition %, planktonic cells turbidity
  inhibition at 200 µM: 59.4 ± 7.3%
[4]; pre-exposure, Inactive = no activity up to 200 μM, > = some inhibition but no MIC reached
  MIC P. aeruginosa ATCC 9027: Inactive
